Assay results reported in PMC8675232 (Frontiers in Pharmacology, 2021).

Columns and labels:
[1] = tested on: healthy Chinese male volunteers; assay: Pharmacodynamics (glucose infusion rate) in 24-h euglycemic clamp; type: in vivo; conditions: 0.4 IU/kg s.c. single dose, mean ± SD
Method: The volunteers were screened and qualified for the entry standard. […] During the trial, volunteers were requested to avoid strenuous exercises, smoking, drinking alcohol, or caffeinated drinks (e.g., tea and coffee). […] C-peptide reduction rate <30%; group B: […] The trial was carried out in accordance with the principles of the Declaration of Helsinki. This study was approved by the Ethics Committee of the First Affiliated Hospital of ChongQing Medical University (No. 20190101). All recruited volunteers underwent a single-dose euglycemic clamp test. Participants arrived at the ward on the day prior to the clamp test to ensure a 10-h fasting condition and to maintain fasting during euglycemic clamping. […] Intravenous access was obtained in one arm for a 20% glucose infusion and in the other for blood drawing. The arm for blood drawing was heated using a warming blanket to arterialize venous blood (55-65°C). […] Basal glucose (BG) was defined as the average blood glucose level before injection; the target glucose (TG) level was defined as the BG minus 0.28 mmol/[…] al., 2015b]); and we controlled the blood glucose concentration as close as possible to the TG level. The glucose infusion rate (GIR) was manually adjusted by investigators to maintain blood glucose at the target value. […] SPSS 22.0 and WinNonlin 8.1 were used for statistical analysis. […] The oscillation of glucose was calculated with formula 1-Gt (glucose at time t)/Gd (desired glucose). […] The pharmacodynamic parameters were area under the glucose infusion rate versus time curve (AUCGIR0-24 h), peak of glucose infusion rate (GIRmax), and time to […]).

[2] = in vivo; cited from earlier work
[3] = group A (C-peptide reduction <30%, n = 13)
[4] = group B (C-peptide reduction ≥30% and <50%, n = 15)
[5] = group C (C-peptide reduction ≥50%, n = 11)

| Substance | AUCGIR0–24 h [1, 3] | GIRmax [1, 3] | TGIRmax [1, 3] | AUCGIR0–24 h [1, 4] | GIRmax [1, 4] | TGIRmax [1, 4] | AUCGIR0–24 h [1, 5] | GIRmax [1, 5] | TGIRmax [1, 5] | half-life [2] |
| --- | --- | --- | --- | --- | --- | --- | --- | --- | --- | --- |
| insulin glargine | 3175.9 ± 1135.2 mg/kg | 3.5 ± 1.3 mg/kg/min | 593.1 ± 198.1 min | 2862.9 ± 1176.0 mg/kg | 3.4 ± 1.4 mg/kg/min | 584.0 ± 199.1 min | 2526.1 ± 1222.0 mg/kg | 3.0 ± 1.5 mg/kg/min | 756.4 ± 228.0 min |  |
| C-peptide |  |  |  |  |  |  |  |  |  | 20 to 30 min |
